Common to all, as to assay type: functional
The subject of assay [1] is Staphylococcus aureus. Put plainly: Antibacterial activity against Staphylococcus aureus KCTC 209 after 24 hrs by broth microdilution method. As to conditions: KCTC 209, 24 h. (In broth dilution the organism is exposed to a series of concentrations in liquid medium.)
Assay [2] concerns Staphylococcus aureus. Put plainly: Ratio of norfloxacin MIC to compound MIC for quinolone-resistant Staphylococcus aureus CCARM 3505 clinical isolate.
For assay [3], the system named is Staphylococcus aureus. Put plainly: Ratio of norfloxacin MIC to compound MIC for methicillin-resistant Staphylococcus aureus CCARM 3167 clinical isolate.
Assay [4] relates to Staphylococcus aureus. Put plainly: Antibacterial activity against Staphylococcus aureus KCTC 503 after 24 hrs by broth microdilution method. As to conditions: KCTC 503, 24 h.
Assay [5] deals with Staphylococcus aureus. Put plainly: Ratio of norfloxacin MIC to compound MIC for quinolone-resistant Staphylococcus aureus CCARM 3519 clinical isolate.
Assay [6] has as its system Staphylococcus aureus. Put plainly: Ratio of norfloxacin MIC to compound MIC for methicillin-resistant Staphylococcus aureus CCARM 3506 clinical isolate.
The test system of assay [7] is Staphylococcus aureus. Put plainly: Antibacterial activity against methicillin-resistant Staphylococcus aureus CCARM 3506 clinical isolate after 24 hrs by broth microdilution method. As to conditions: CCARM 3506, 24 h.
In assay [8] the test system is Staphylococcus aureus. Put plainly: Antibacterial activity against Staphylococcus aureus RN4220 after 24 hrs by broth microdilution method. As to conditions: RN4220, 24 h.
Assay [9] relates to Escherichia coli. Put plainly: Antibacterial activity against Escherichia coli CCARM 1356 after 24 hrs by broth microdilution method. As to conditions: CCARM 1356, 24 h.
In assay [10] the test system is Staphylococcus aureus. Put plainly: Antibacterial activity against methicillin-resistant Staphylococcus aureus CCARM 3167 clinical isolate after 24 hrs by broth microdilution method. Particulars: CCARM 3167, 24 h.
For assay [11], the system named is Staphylococcus aureus. Put plainly: Antibacterial activity against quinolone-resistant Staphylococcus aureus CCARM 3505 clinical isolate after 24 hrs by broth microdilution method. As to conditions: CCARM 3505, 24 h.
Assay [12] deals with Staphylococcus aureus. Put plainly: Antibacterial activity against quinolone-resistant Staphylococcus aureus CCARM 3519 clinical isolate after 24 hrs by broth microdilution method. Particulars: CCARM 3519, 24 h.

The structures appear in SMILES notation. Converted amounts (≈) assume the structure as drawn. Some results are limits rather than exact numbers.

The MIC is the least concentration at which growth counts as inhibited. For `O=C(O)[C@H](Cc1ccccc1)N1C(=O)/C(=C\c2ccc(OCc3ccc(Cl)cc3)cc2)SC1=S`, the MIC was 8 µg/mL (≈ 15.7 µM) in [1]; 8 µg/mL (≈ 15.7 µM) in assay [4]; 4 µg/mL (≈ 7.84 µM) in assay [7]; 2 µg/mL (≈ 3.92 µM) in assay [8]; over 64 µg/mL in assay [9]; 4 µg/mL (≈ 7.84 µM) in assay [10]. Further, the MIC in [11] and in [12] was 4 µg/mL (≈ 7.84 µM) in each case. Also, the Ratio in assay [2], in [3], in assay [5] and in assay [6] was 2 each time.

Turning to `O=C(/C=C/c1ccc(/C=C2\SC(=S)N([C@@H](Cc3ccccc3)C(=O)O)C2=O)cc1)c1ccc(Cl)cc1`, the MIC in [1] was 8 µg/mL (≈ 15 µM); in assay [4], 8 µg/mL (≈ 15 µM); in [7], 4 µg/mL (≈ 7.49 µM); in assay [8] it was 2 µg/mL (≈ 3.74 µM); in assay [9] it was over 64 µg/mL; in assay [10], 2 µg/mL (≈ 3.74 µM). Moreover, the MIC in assay [11] and in [12] was 4 µg/mL (≈ 7.49 µM) each time. For the same compound, the Ratio in [2], in assay [3], in assay [5] and in assay [6] was 2 in each case.

Turning to `O=C(O)[C@H](Cc1ccccc1)N1C(=O)/C(=C\c2ccc(OCc3ccccc3)cc2)SC1=S`, the MIC in assay [1] is 8 µg/mL (≈ 16.8 µM); in assay [4] it was 8 µg/mL (≈ 16.8 µM); in assay [7], 8 µg/mL (≈ 16.8 µM); in [8], 2 µg/mL (≈ 4.21 µM); in assay [9], over 64 µg/mL; in assay [10], 4 µg/mL (≈ 8.41 µM). Further, the MIC amounted to 4 µg/mL (≈ 8.41 µM) in assay [11] and 8 µg/mL (≈ 16.8 µM) in assay [12]. Besides, the Ratio in assay [2], in [3], in [5] and in assay [6] was 2 in each case.

Regarding `O=C(O)[C@H](Cc1ccccc1)N1C(=O)/C(=C\c2ccc(OCc3cccc(Cl)c3)cc2)SC1=S`, the MIC in [1] was 8 µg/mL (≈ 15.7 µM); in assay [4], 8 µg/mL (≈ 15.7 µM); in assay [7], 4 µg/mL (≈ 7.84 µM); in assay [8] it was 2 µg/mL (≈ 3.92 µM); in [9], over 64 µg/mL; in assay [10] it was 4 µg/mL (≈ 7.84 µM). In addition, the MIC in assay [11] and in assay [12] was 4 µg/mL (≈ 7.84 µM) throughout. The Ratio in [2], in assay [3], in [5] and in assay [6] was 2 in each case.

As to `O=C(/C=C/c1ccc(/C=C2\SC(=S)N([C@@H](Cc3ccccc3)C(=O)O)C2=O)cc1)c1cccc(Br)c1`, the MIC in assay [1] is 16 µg/mL (≈ 27.7 µM); in [4], 16 µg/mL (≈ 27.7 µM); in assay [7] it was 8 µg/mL (≈ 13.8 µM); in assay [8], 8 µg/mL (≈ 13.8 µM); in assay [9], over 64 µg/mL; in assay [10], 8 µg/mL (≈ 13.8 µM). For the same compound, the values for the MIC in assay [11] and in [12] were 8 µg/mL (≈ 13.8 µM) and 16 µg/mL (≈ 27.7 µM), respectively. The Ratio in assay [2], in assay [3], in assay [5] and in assay [6] was 2 throughout.

Consider `O=C(O)[C@H](Cc1ccccc1)N1C(=O)/C(=C\c2ccc(OCc3cccc(F)c3)cc2)SC1=S`, for which the MIC is 16 µg/mL (≈ 32.4 µM) in [1]; 16 µg/mL (≈ 32.4 µM) in assay [4]; 8 µg/mL (≈ 16.2 µM) in [7]; 4 µg/mL (≈ 8.1 µM) in [8]; over 64 µg/mL in assay [9]; 8 µg/mL (≈ 16.2 µM) in assay [10]. Besides, the MIC in [11] and in [12] was 8 µg/mL (≈ 16.2 µM) throughout. The Ratio in assay [2], in assay [3], in [5] and in assay [6] was 2 each time.

In the case of `COc1ccccc1C(=O)/C=C/c1ccc(/C=C2\SC(=S)N([C@@H](Cc3ccccc3)C(=O)O)C2=O)cc1`, the MIC was 16 µg/mL (≈ 30.2 µM) in assay [1]; 16 µg/mL (≈ 30.2 µM) in assay [4]; 8 µg/mL (≈ 15.1 µM) in assay [7]; 8 µg/mL (≈ 15.1 µM) in assay [8]; over 64 µg/mL in assay [9]; 8 µg/mL (≈ 15.1 µM) in assay [10]. The results for the MIC in assay [11] and in [12] were 4 µg/mL (≈ 7.55 µM) and 16 µg/mL (≈ 30.2 µM), respectively. Further, the Ratio in assay [2], in assay [3], in [5] and in assay [6] was 2 throughout.

As for `O=C(/C=C/c1ccc(/C=C2\SC(=S)N([C@@H](Cc3ccccc3)C(=O)O)C2=O)cc1)c1ccc(Br)cc1`, the MIC in [1] is 4 µg/mL (≈ 6.91 µM); in assay [4] it was 4 µg/mL (≈ 6.91 µM); in assay [7], 2 µg/mL (≈ 3.46 µM); in assay [8], 2 µg/mL (≈ 3.46 µM); in [9], over 64 µg/mL; in assay [10] it was 2 µg/mL (≈ 3.46 µM). Further, the MIC was 8 µg/mL (≈ 13.8 µM) in assay [11] and 2 µg/mL (≈ 3.46 µM) in assay [12]. The Ratio in assay [2], in [3], in assay [5] and in [6] was 2 throughout.

`CC(=O)Nc1ccc(C(=O)/C=C/c2ccc(/C=C3\SC(=S)N([C@@H](Cc4ccccc4)C(=O)O)C3=O)cc2)cc1`: the MIC was 16 µg/mL (≈ 28.7 µM) in [1]; 16 µg/mL (≈ 28.7 µM) in [4]; 2 µg/mL (≈ 3.59 µM) in assay [7]; 4 µg/mL (≈ 7.19 µM) in [8]; over 64 µg/mL in [9]; 4 µg/mL (≈ 7.19 µM) in assay [10]. Besides, the MIC in assay [11] and in [12] was 4 µg/mL (≈ 7.19 µM) each time. Besides, the Ratio in [2], in assay [3], in assay [5] and in assay [6] was 2 in each case.

With `O=C(/C=C/c1ccc(/C=C2\SC(=S)N([C@@H](Cc3ccccc3)C(=O)O)C2=O)cc1)c1cccc(Cl)c1`, the MIC in [1] was 16 µg/mL (≈ 30 µM); in [4], 16 µg/mL (≈ 30 µM); in [7], 4 µg/mL (≈ 7.49 µM); in assay [8], 2 µg/mL (≈ 3.74 µM); in assay [9], over 64 µg/mL; in assay [10], 2 µg/mL (≈ 3.74 µM). Further, the MIC in assay [11] and in assay [12] was 8 µg/mL (≈ 15 µM) in each case. Also, the Ratio in [2], in assay [3], in [5] and in [6] was 2 throughout.

As for `O=C(/C=C/c1ccc(/C=C2\SC(=S)N([C@@H](Cc3ccccc3)C(=O)O)C2=O)cc1)c1ccccc1F`, the MIC in [1] is 16 µg/mL (≈ 30.9 µM); in assay [4], 16 µg/mL (≈ 30.9 µM); in [7], 4 µg/mL (≈ 7.73 µM); in [8], 4 µg/mL (≈ 7.73 µM); in assay [9], over 64 µg/mL; in [10], 4 µg/mL (≈ 7.73 µM). The MIC in assay [11] and in assay [12] was 8 µg/mL (≈ 15.5 µM) each time. Also, the Ratio in assay [2], in assay [3], in assay [5] and in [6] was 2 in each case.

For `COc1cccc(C(=O)/C=C/c2ccc(/C=C3\SC(=S)N([C@@H](Cc4ccccc4)C(=O)O)C3=O)cc2)c1`, the MIC in assay [1] was 16 µg/mL (≈ 30.2 µM); in assay [4], 16 µg/mL (≈ 30.2 µM); in [7] it was 8 µg/mL (≈ 15.1 µM); in assay [8], 4 µg/mL (≈ 7.55 µM); in assay [9], over 64 µg/mL; in assay [10] it was 8 µg/mL (≈ 15.1 µM). In addition, the MIC in [11] and in assay [12] was 8 µg/mL (≈ 15.1 µM) in each case. Besides, the Ratio in [2], in [3], in [5] and in assay [6] was 2 throughout.

Take `O=C(/C=C/c1ccc(/C=C2\SC(=S)N([C@@H](Cc3ccccc3)C(=O)O)C2=O)cc1)c1ccc(Cl)cc1Cl`: the MIC in assay [1] was 16 µg/mL (≈ 28.1 µM); in assay [4], 16 µg/mL (≈ 28.1 µM); in assay [7] it was 4 µg/mL (≈ 7.04 µM); in assay [8], 4 µg/mL (≈ 7.04 µM); in assay [9] it was over 64 µg/mL; in assay [10] it was 4 µg/mL (≈ 7.04 µM). For the same compound, the results for the MIC in assay [11] and in assay [12] were 4 µg/mL (≈ 7.04 µM) and 16 µg/mL (≈ 28.1 µM), respectively. Besides, the Ratio in assay [2], in assay [3], in assay [5] and in assay [6] was 2 each time.

The values above are taken from ChEMBL document CHEMBL2086385, “Synthesis and antimicrobial evaluation of L-phenylalanine-derived C5-substituted rhodanine and chalcone derivatives containing thiobarbituric acid or 2-thioxo-4-thiazolidinone” (2012).
